According to ChEMBL document CHEMBL1201862, “PubChem BioAssay data set” (2004):
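Each compound was tested at five concentrations against cells in 96-well plates for 48 hours. Here, GI50 denotes the concentration required for 50% inhibition of growth.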 Active and inactive are the calls of the source. Cut-off read from the data, not from the text of the source: active = GI50 up to about 1.1 µM and inactive = higher.

What was measured:
Test in all cases: NCI tumour cell line growth inhibition, 48 h
786-0 = system: 786-0
A498 = system: A498
A549 = system: A549
ACHN = system: ACHN
CAKI-1 = system: CAKI-1
CCRF-CEM = system: CCRF-CEM
COLO 205 = system: COLO 205
DU-145 = system: DU-145
EKVX = system: EKVX
HCC 2998 = system: HCC 2998
HCT-116 = system: HCT-116
HCT-15 = system: HCT-15
HL-60 = system: HL-60
HOP-62 = system: HOP-62
HT-29 = system: HT-29
Hs-578T = system: Hs-578T
IGROV-1 = system: IGROV-1
K562 = system: K562
KM12 = system: KM12
LOX IMVI = system: LOX IMVI
M14 = system: M14
MDA-MB-231 = system: MDA-MB-231
MDA-MB-435 = system: MDA-MB-435
MDA-N = system: MDA-N
MOLT-4 = system: MOLT-4
Malme-3M = system: Malme-3M
NCI-H226 = system: NCI-H226
NCI-H23 = system: NCI-H23
NCI-H460 = system: NCI-H460
NCI-H522 = system: NCI-H522
NCI/ADR-RES = system: NCI/ADR-RES
OVCAR-3 = system: OVCAR-3
OVCAR-4 = system: OVCAR-4
OVCAR-5 = system: OVCAR-5
PC-3 = system: PC-3
RPMI-8226 = system: RPMI-8226
RXF 393 = system: RXF 393
SF-268 = system: SF-268
SF-295 = system: SF-295
SF-539 = system: SF-539
SK-MEL-28 = system: SK-MEL-28
SK-MEL-2 = system: SK-MEL-2
SK-MEL-5 = system: SK-MEL-5
SK-OV-3 = system: SK-OV-3
SN12C = system: SN12C
SNB-19 = system: SNB-19
SNB-75 = system: SNB-75
SR = system: SR
SW-620 = system: SW-620
T47D = system: T47D
TK-10 = system: TK-10
UACC-257 = system: UACC-257
UACC-62 = system: UACC-62
UO-31 = system: UO-31
HOP-92 = system: HOP-92
MCF7 = system: MCF7
OVCAR-8 = system: OVCAR-8
U-251 = system: U-251

SMILES: COc1cc2nn(-c3ccccc3)nc2c2nonc12
- GI50 (786-0): 91.6 µM (inactive)
- GI50 (A498): > 100 µM (inactive)
- GI50 (A549): > 100 µM (inactive)
- GI50 (ACHN): > 100 µM (inactive)
- GI50 (CAKI-1): > 100 µM (inactive)
- GI50 (CCRF-CEM): > 100 µM (inactive)
- GI50 (COLO 205): > 100 µM (inactive)
- GI50 (DU-145): > 100 µM (inactive)
- GI50 (EKVX): > 100 µM (inactive)
- GI50 (HCC 2998): > 100 µM (inactive)
- GI50 (HCT-116): 41 µM (inactive)
- GI50 (HCT-15): > 100 µM
- GI50 (HL-60): > 100 µM (inactive)
- GI50 (HOP-62): > 100 µM (inactive)
- GI50 (HT-29): > 100 µM (inactive)
- GI50 (Hs-578T): 77.3 µM (inactive)
- GI50 (IGROV-1): > 100 µM (inactive)
- GI50 (K562): > 100 µM (inactive)
- GI50 (KM12): > 100 µM (inactive)
- GI50 (LOX IMVI): 38.8 µM (inactive)
- GI50 (M14): > 100 µM (inactive)
- GI50 (MDA-MB-231): > 100 µM (inactive)
- GI50 (MDA-MB-435): > 100 µM (inactive)
- GI50 (MDA-N): > 100 µM (inactive)
- GI50 (MOLT-4): > 100 µM (inactive)
- GI50 (Malme-3M): > 100 µM (inactive)
- GI50 (NCI-H226): > 100 µM (inactive)
- GI50 (NCI-H23): > 100 µM (inactive)
- GI50 (NCI-H460): > 100 µM (inactive)
- GI50 (NCI-H522): > 100 µM (inactive)
- GI50 (NCI/ADR-RES): > 100 µM (inactive)
- GI50 (OVCAR-3): > 100 µM (inactive)
- GI50 (OVCAR-4): 95.9 µM (inactive)
- GI50 (OVCAR-5): > 100 µM (inactive)
- GI50 (PC-3): > 100 µM (inactive)
- GI50 (RPMI-8226): > 100 µM (inactive)
- GI50 (RXF 393): > 100 µM (inactive)
- GI50 (SF-268): > 100 µM (inactive)
- GI50 (SF-295): > 100 µM (inactive)
- GI50 (SF-539): 87.5 µM (inactive)
- GI50 (SK-MEL-28): > 100 µM (inactive)
- GI50 (SK-MEL-2): > 100 µM (inactive)
- GI50 (SK-MEL-5): > 100 µM (inactive)
- GI50 (SK-OV-3): > 100 µM (inactive)
- GI50 (SN12C): > 100 µM (inactive)
- GI50 (SNB-19): > 100 µM (inactive)
- GI50 (SNB-75): > 100 µM (inactive)
- GI50 (SR): > 100 µM (inactive)
- GI50 (SW-620): > 100 µM (inactive)
- GI50 (T47D): > 100 µM (inactive)
- GI50 (TK-10): > 100 µM (inactive)
- GI50 (UACC-257): > 100 µM (inactive)
- GI50 (UACC-62): > 100 µM (inactive)
- GI50 (UO-31): > 100 µM (inactive)

SMILES: CCCC(=O)OC1CC(n2cc(F)c(=O)[nH]c2=O)OC1COP(=O)(OCC(Cl)(Cl)Cl)OCC(Cl)(Cl)Cl (stereo not given)
- GI50 (786-0): 0.31 µM (active)
- GI50 (A549): 0.461 µM (active)
- GI50 (ACHN): 0.147 µM (active)
- GI50 (CAKI-1): 0.283 µM (active)
- GI50 (CCRF-CEM): 0.372 µM (active)
- GI50 (COLO 205): 0.0614 µM (active)
- GI50 (DU-145): 0.938 µM (active)
- GI50 (EKVX): 43.8 µM (inactive)
- GI50 (HCC 2998): < 0.01 µM (active)
- GI50 (HCT-116): 3.18 µM (inactive)
- GI50 (HCT-15): 22.1 µM
- GI50 (HL-60): 10.8 µM (inactive)
- GI50 (HOP-62): 0.131 µM (active)
- GI50 (HOP-92): 4.99 µM (inactive)
- GI50 (HT-29): 13.7 µM (inactive)
- GI50 (Hs-578T): 13.9 µM (inactive)
- GI50 (IGROV-1): 14.8 µM (inactive)
- GI50 (K562): > 10 µM (inactive)
- GI50 (KM12): 19.1 µM (inactive)
- GI50 (LOX IMVI): 16.1 µM (inactive)
- GI50 (M14): 2.06 µM (inactive)
- GI50 (MCF7): 0.0697 µM (active)
- GI50 (MDA-MB-231): 24.2 µM (inactive)
- GI50 (MDA-MB-435): 18.2 µM (inactive)
- GI50 (MDA-N): 7.01 µM (inactive)
- GI50 (MOLT-4): 2.48 µM (inactive)
- GI50 (Malme-3M): 5.41 µM (inactive)
- GI50 (NCI-H226): 65.2 µM (inactive)
- GI50 (NCI-H23): 11 µM (inactive)
- GI50 (NCI-H460): 0.0351 µM (active)
- GI50 (NCI-H522): 5.51 µM (inactive)
- GI50 (NCI/ADR-RES): 1.17 µM (inactive)
- GI50 (OVCAR-3): 4.24 µM (inactive)
- GI50 (OVCAR-4): 16.9 µM (inactive)
- GI50 (OVCAR-5): 28.4 µM (inactive)
- GI50 (OVCAR-8): 0.925 µM (active)
- GI50 (PC-3): 7.74 µM (inactive)
- GI50 (RPMI-8226): 1.47 µM (inactive)
- GI50 (SF-268): 0.766 µM (active)
- GI50 (SF-295): 0.167 µM (active)
- GI50 (SK-MEL-28): 12.3 µM (inactive)
- GI50 (SK-MEL-2): > 59.4 µM (inactive)
- GI50 (SK-MEL-5): 2.44 µM (inactive)
- GI50 (SK-OV-3): 12.4 µM (inactive)
- GI50 (SN12C): 22 µM (inactive)
- GI50 (SNB-19): 3.15 µM (inactive)
- GI50 (SNB-75): 8.04 µM (inactive)
- GI50 (SR): 1.25 µM (inactive)
- GI50 (SW-620): 19.9 µM (inactive)
- GI50 (T47D): 20.7 µM (inactive)
- GI50 (TK-10): 22.5 µM (inactive)
- GI50 (U-251): 4.02 µM (inactive)
- GI50 (UACC-257): 21.7 µM (inactive)
- GI50 (UACC-62): 2.06 µM (inactive)
- GI50 (UO-31): 0.49 µM (active)

SMILES: CCOC(=O)C(NC(=O)CC(C)C)(NC(C)C)C(F)(F)F (stereo not given)
- GI50 (786-0): > 100 µM (inactive)
- GI50 (A498): > 100 µM (inactive)
- GI50 (A549): > 100 µM (inactive)
- GI50 (ACHN): > 100 µM (inactive)
- GI50 (CAKI-1): > 100 µM (inactive)
- GI50 (CCRF-CEM): > 100 µM (inactive)
- GI50 (COLO 205): > 100 µM (inactive)
- GI50 (DU-145): > 100 µM (inactive)
- GI50 (EKVX): > 100 µM (inactive)
- GI50 (HCC 2998): > 100 µM (inactive)
- GI50 (HCT-116): > 100 µM (inactive)
- GI50 (HCT-15): > 100 µM
- GI50 (HL-60): > 100 µM (inactive)
- GI50 (HOP-62): > 100 µM (inactive)
- GI50 (HOP-92): > 100 µM (inactive)
- GI50 (HT-29): > 100 µM (inactive)
- GI50 (Hs-578T): > 100 µM (inactive)
- GI50 (IGROV-1): > 100 µM (inactive)
- GI50 (K562): > 100 µM (inactive)
- GI50 (KM12): > 100 µM (inactive)
- GI50 (LOX IMVI): > 100 µM (inactive)
- GI50 (M14): > 100 µM (inactive)
- GI50 (MCF7): > 100 µM (inactive)
- GI50 (MDA-MB-231): > 100 µM (inactive)
- GI50 (MDA-MB-435): > 100 µM (inactive)
- GI50 (MDA-N): > 100 µM (inactive)
- GI50 (MOLT-4): > 100 µM (inactive)
- GI50 (Malme-3M): > 100 µM (inactive)
- GI50 (NCI-H226): > 100 µM (inactive)
- GI50 (NCI-H23): > 100 µM (inactive)
- GI50 (NCI-H460): > 100 µM (inactive)
- GI50 (NCI-H522): > 100 µM (inactive)
- GI50 (NCI/ADR-RES): > 100 µM (inactive)
- GI50 (OVCAR-3): > 100 µM (inactive)
- GI50 (OVCAR-4): > 100 µM (inactive)
- GI50 (OVCAR-5): > 100 µM (inactive)
- GI50 (OVCAR-8): > 100 µM (inactive)
- GI50 (PC-3): > 100 µM (inactive)
- GI50 (RPMI-8226): > 100 µM (inactive)
- GI50 (RXF 393): > 100 µM (inactive)
- GI50 (SF-268): > 100 µM (inactive)
- GI50 (SF-295): > 100 µM (inactive)
- GI50 (SF-539): > 100 µM (inactive)
- GI50 (SK-MEL-28): > 100 µM (inactive)
- GI50 (SK-MEL-2): > 100 µM (inactive)
- GI50 (SK-MEL-5): > 100 µM (inactive)
- GI50 (SK-OV-3): > 100 µM (inactive)
- GI50 (SN12C): > 100 µM (inactive)
- GI50 (SNB-19): > 100 µM (inactive)
- GI50 (SR): > 100 µM (inactive)
- GI50 (SW-620): > 100 µM (inactive)
- GI50 (T47D): > 100 µM (inactive)
- GI50 (TK-10): > 100 µM (inactive)
- GI50 (U-251): > 100 µM (inactive)
- GI50 (UACC-257): > 100 µM (inactive)
- GI50 (UO-31): > 100 µM (inactive)
